Assay results published in patent publication US20160115225A1, “Methods of Reducing Methylglyoxal (MGO) Modification of Recombinant Proteins in Cell Culture” (AbbVie Inc., priority 2014, published 2016).

Tested on: adalimumab producing cell line 1
Assay: WCX-10 quantification of acidic species of adalimumab, bioreactor culture, cell line 1
Format: cell-based
Method: Two adalimumab producing cell lines were employed in the studies covered here. Upon thaw, cells were cultured in their respective growth media in a combination of vented non-baffled shake flasks (Corning) on a shaker platform at 110 RPM (cell line 1) and 140 RPM (cell line 2) and 10 L or 20 L wave bags (GE). Cultures were propagated in a 35° C., 5% CO2 incubator for cell line 1 and 36° C., 5% CO2 incubator for cell line 2 to obtain the required number of cells to be able to initiate production stage cultures. For the bioreactor (3 L Applikon) experiments (Examples 1, 2 and 3), 3 L, bioreactors (1.5 L working volume) were initiated at 35° C. (cell line 1) and 36° C. (cell line 2), 30% DO, 200 rpm, pH of 7.1. In some of the conditions, pH was ramped down to 6.8 in three days and kept at pH 6.8 thereafter. The inclusion of pH ramp for a particular condition is indicated by the final pH in the experimental design. If the final pH is 7.1, then it indicates no pH ramp was performed, whereas if the final pH is 6.8, a pH ramp was performed on day 3 from pH 7.1 to pH 6.8. In some of the conditions, a temperature shift was performed. When temperature shift was performed, the temperature was lowered to 33° C. Again, the conditions where such a temperature shift was performed can be identified from the final temperature in the experimental design. Cultures were run in extended batch mode with the addition of a desired amount of 40% glucose stock solution was fed based on glucose measurements. The harvest procedure of the reactors involved centrifugation of the culture sample at 3,000 RPM for 30 min and storage of supernatant in PETG bottles at −80° C. before submission for protein A purification, WCX-10 analysis and Lys-C peptide mapping. This method is employed towards the quantification of the acidic species and other charge variants present in cell culture harvest samples. Cation exchange chromatography was performed on a Dionex ProPac WCX-10, Analytical column (Dionex, Calif.). The mobile phases used were 10 mM Sodium Phosphate dibasic pH 7.5 (Mobile phase A) and 10 mM Sodium Phosphate dibasic, 500 mM Sodium Chloride pH 5.5 (Mobile phase B). A binary gradient (94% A, 6% B: […]; 84% A, 16% B: 20-22 min; 0% A, 100% B: 22-28 min; 94% A, 6% B: 28-34 min) was used with detection at 280 nm. Quantitation is based on the relative area percent of detected peaks. The peaks that elute at relative residence time earlier than the main peak corresponding to the drug product are together represented as the acidic peaks. Cell line 1 was cultured in IVGN production medium supplemented with or without 2DDG (0.25 g/l). Prior to this experiment, a study was performed in a shake flask culture to evaluate the dose effect of 2DDG on this cell line and optimize a dose range of reactor evaluation (data not shown). In this experiment, the cultures were performed in 3 L bioreactors in batch format (pH 7.1, DO—30%, 200 rpm) with only glucose feed as described in Example 1. Temperature shift was implemented in some tests (35° C. to 33° C. on day 5 of culture). Both 2DDG supplementation and temperature shift were employed as methods to reduce glucose consumption of the cells in culture. The hypothesis was that the reduction in glucose consumption will translate into reduced synthesis of MGO in cell culture. As a result, a reduction in MGO modification and acidic species of the protein would be achieved. In this experiment, the cultures were performed in 3 L bioreactors in batch format (DO—30%, 200 rpm) with only glucose feed as described in the materials and methods. The control condition was run at a constant temperature of 35° C., constant pH of 7.1 without any supplementation of 2DDG or arginine (condition #10). […]

## O=CC[C@@H](O)[C@H](O)[C@H](O)CO [Test 2DDG, 2-Deoxy-D-Glucose]
Example 2, 2DDG 0.25 g/l with temperature shift 35° C. to 33° C. on day 5, Day 10 harvest, control 26.6%
  percentage of acidic species: 17.4%
Example 2, 2DDG 0.25 g/l, no temperature shift, Day 10 harvest, control 26.6%
  percentage of acidic species: 22.9%
Example 3, 2DDG 0.25 g/l alone, day 11 harvest, control 68.4%
  percentage of acidic species: 48.5%
Example 3, 2DDG 0.25 g/l and temperature shift, day 11 harvest, control 68.4%
  percentage of acidic species: 22.7%
Example 3, 2DDG, temperature shift and arginine supplementation (4 g/l), day 11 harvest
  percentage of acidic species: 12.6%
Example 3, 2DDG, temperature shift and lower pH (6.8), day 11 harvest
  percentage of acidic species: 15.2%
Example 3, 2DDG, temperature shift, lower pH and arginine supplementation, day 11 harvest
  percentage of acidic species: 12.0%
